# Molecular target: T1, IDO1 (Homo sapiens, UniProt P14902)
# T1 construct: HeLa cells were treated with a test compound in the presence of IFNγ, which induces IDO1 expression; endogenous in cells; host or cells: H1-HeLa cells (ATCC #CRL-1958), induced with IFNγ
# Assay: Cell-based (HeLa) assay for measurement of IDO1 inhibition (kynurenine levels in supernatant after IFNγ induction)
# Settings: H1-HeLa cells, IFNγ-induced IDO1, 48 hour incubation, kynurenine absorbance at 480 nm; geometric mean of a minimum of four determinations
# Method: To measure IDO1 inhibition in tissue culture, HeLa cells were treated with a test compound in the presence of IFNγ, which induces IDO1 expression. Following incubation, cell supernatants were assayed for kynurenine levels, an indicator of IDO1 activity.
# H1-HeLa cells (ATCC #CRL-1958) were seeded in 384-well plates (Greiner #82051-282) at a volume […] (Corning #15-018-CM) supplemented with 10% FBS (Corning #35-011-CV) and 1% P/S/G (Corning #30-009-CL) at a density of 1,250 cells/well and incubated overnight at 37° C., 5% CO2/100% humidity. The following day, the test compounds were added in DMSO (0.5% final) at various concentrations, and IDO1 was inducibly expressed by the addition of 50 uL/well of 50 ng/mL of INFγ(Peprotech #300-02) in cell plating media. As a positive control, 50 uL of the cell plating media without IFNγ was added to several wells. Following a 48 hour incubation, the plates were spun down at 1,200 RPM for 5 min at 10° C. 65 μL/well of the supernatant was then transferred to new 384-well plates (Thermo #262160) that contained 10 uL/well of 30% TCA (Sigma #T0699), and the plates were sealed and incubated at 60° C. for 30 min. The plates were then centrifuged for 15 min at 2,000 RPM at 10° C. 40 μL/well of the supernatant was transferred to new 384-well plates (Thermo #262160) and was reacted with 40 μL/well of 2% (w/v) p-dimethylaminobenzaldehyde (Sigma #156417) in glacial acetic acid (Sigma #A6283). The reaction was incubated at room temperature for 10 min and absorbance at 480 nm was read using a PerkinElmer Envision plate reader.
# Data in Table 1 were normalized based on positive (−IFNγ) and negative (+IFNγ) controls and EC50 values were calculated from the fit of the dose-response curves to a four-parameter equation. All EC50 values represent geometric mean values of a minimum of four determinations. These assays generally produced results within 2-fold of the reported mean.
# T1 sequence (P14902 whole entry): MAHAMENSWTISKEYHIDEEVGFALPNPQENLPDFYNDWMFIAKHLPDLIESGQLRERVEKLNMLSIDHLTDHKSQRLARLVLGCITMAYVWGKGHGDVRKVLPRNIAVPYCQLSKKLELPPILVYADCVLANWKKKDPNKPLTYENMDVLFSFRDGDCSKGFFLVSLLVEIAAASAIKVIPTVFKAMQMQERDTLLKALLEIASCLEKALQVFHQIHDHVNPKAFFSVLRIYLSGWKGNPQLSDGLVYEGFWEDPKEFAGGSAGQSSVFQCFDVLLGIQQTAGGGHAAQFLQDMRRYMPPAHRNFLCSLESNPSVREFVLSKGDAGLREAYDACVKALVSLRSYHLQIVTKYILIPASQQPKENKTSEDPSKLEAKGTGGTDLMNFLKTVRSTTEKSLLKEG
row,SMILES,EC50 [nM]
1,"O=C(Nc1ccc(F)cc1)c1cc(-c2cccn3c(-c4cccnc4)ncc23)ccc1C(F)(F)F [Example 31, N-(4-fluorophenyl)-5-(3-(pyridin-3-yl)imidazo[1,5-a]pyridin-8-yl)-2-(trifluoromethyl)benzamide]",38.3
2,"Cc1cccc(-c2ncc3c(-c4ccc(C)c(C(=O)Nc5ccc(F)cc5)c4)nccn23)c1 [Example 53, N-(4-fluorophenyl)-2-methyl-5-(3-(m-tolyl)imidazo[1,5-a]pyrazin-8-yl)benzamide]",2380
3,"Cc1ncc(-c2cccn3c(C4CCCC4)ncc23)cc1C(=O)Nc1ccc(F)cc1 [Example 74, 5-(3-cyclopentylimidazo[1,5-a]pyridin-8-yl)-N-(4-fluorophenyl)-2-methylnicotinamide]",460
4,"Cc1ccc(-c2nccn3c(-c4ccccc4C)ncc23)cc1C(=O)Nc1ccc(F)cc1 [Example 52, N-(4-fluorophenyl)-2-methyl-5-(3-(o-tolyl)imidazo[1,5-a]pyrazin-8-yl)benzamide]",3110
5,"Cc1ccc(-c2cccn3c(-c4ccc(F)cc4C)nnc23)cc1C(=O)Nc1ccc(F)cc1 [Example 5, 5-(3-(4-fluoro-2-methylphenyl)-[1,2,4]triazolo[4,3-a]pyridin-8-yl)-N-(4-fluorophenyl)-2-methylbenzamide]",1410
6,"Cc1ncc(-c2cccn3c(-c4cc(F)cc(F)c4)ncc23)cc1C(=O)Nc1ccc(F)cc1 [Example 27, 5-(3-(3,5-difluorophenyl)imidazo[1,5-a]pyridin-8-yl)-N-(4-fluorophenyl)-2-methylnicotinamide]",61.7
7,"Cc1cnc(-c2cccn3c(-c4cccc(F)c4F)ncc23)cc1C(=O)Nc1ccc(F)cc1 [Example 56, 2-(3-(2,3-difluorophenyl)imidazo[1,5-a]pyridin-8-yl)-N-(4-fluorophenyl)-5-methylisonicotinamide]",85.7
8,"Fc1ccc2[nH]c(-c3cc(-c4cccn5c(-c6cccc(F)c6F)ncc45)cnc3C(F)(F)F)nc2c1 [Example 98, 2-(5-(3-(2,3-difluorophenyl)imidazo[1,5-a]pyridin-8-yl)-2-(trifluoromethyl)pyridin-3-yl)-5-fluoro-1H-benzo[d]imidazole]",36.6
9,"Cc1ccn2c(-c3cccc(F)c3F)ncc2c1-c1cnc(C)c(C(=O)Nc2ccc(F)cc2)c1 [Example 77, 5-(3-(2,3-difluorophenyl)-7-methylimidazo[1,5-a]pyridin-8-yl)-N-(4-fluorophenyl)-2-methylnicotinamide]",730
10,"O=C(Nc1ccc(F)cc1)c1cc(-c2cccn3c(-c4ccccn4)ncc23)ccc1C(F)(F)F [Example 33, N-(4-fluorophenyl)-5-(3-(pyridin-2-yl)imidazo[1,5-a]pyridin-8-yl)-2-(trifluoromethyl)benzamide]",31.1
11,"Cc1ncc(-c2cccn3c(-c4cccc(F)c4F)ncc23)cc1C(=O)Nc1ccc(F)c(Br)c1 [Example 63, N-(3-bromo-4-fluorophenyl)-5-(3-(2,3-difluorophenyl)imidazo[1,5-a]pyridin-8-yl)-2-methylnicotinamide]",307
12,"Cc1ccc(-c2cccn3c(-c4cccc(F)c4F)nnc23)cc1C(=O)Nc1ccc(F)cc1 [Example 20, 5-(3-(2,3-difluorophenyl)-[1,2,4]triazolo[4,3-a]pyridin-8-yl)-N-(4-fluorophenyl)-2-methylbenzamide]",192
13,"Cc1ncc(-c2cccn3c(-c4ncccn4)ncc23)cc1C(=O)Nc1ccc(F)cc1 [Example 25, N-(4-fluorophenyl)-2-methyl-5-(3-(pyrimidin-2-yl)imidazo[1,5-a]pyridin-8-yl)nicotinamide]",69
14,"Cc1ncc(-c2cccn3c(-c4cccc(F)c4C(F)(F)F)ncc23)cc1C(=O)Nc1ccc(F)cc1 [Example 18, 5-(3-(3-fluoro-2-(trifluoromethyl)phenyl)imidazo[1,5-a]pyridin-8-yl)-N-(4-fluorophenyl)-2-methylnicotinamide]",211
15,"Cc1ncc(-c2cccn3c(-c4c(F)cccc4F)ncc23)cc1C(=O)Nc1ccc(F)cc1 [Example 24, 5-(3-(2,6-difluorophenyl)imidazo[1,5-a]pyridin-8-yl)-N-(4-fluorophenyl)-2-methylnicotinamide]",104
16,"Cc1ncc(-c2cccn3c(-c4cccc(Cl)c4)ncc23)cc1C(=O)Nc1ccc(F)cc1 [Example 81, 5-(3-(3-chlorophenyl)imidazo[1,5-a]pyridin-8-yl)-N-(4-fluorophenyl)-2-methylnicotinamide]",235

# Stronger by EC50, values ahead:
row,EC50 [nM],SMILES
1,23.9,"[2H]c1c([2H])c(NC(=O)c2cc(-c3cccn4c(-c5cccc(F)c5F)ncc34)cnc2C)c([2H])c([2H])c1F [Example 73, 5-(3-(2,3-difluorophenyl)imidazo[1,5-a]pyridin-8-yl)-N-(4-fluorophenyl-2,3,5,6-d4)-2-methylnicotinamide]"
2,12.2,"O=C(Nc1ccc(F)cc1)c1cc(-c2cccn3c(-c4cccc(F)c4F)ncc23)ccc1Cl [Example 70, 2-chloro-5-(3-(2,3-difluorophenyl)imidazo[1,5-a]pyridin-8-yl)-N-(4-fluorophenyl)benzamide]"
3,17.5,"O=C(Nc1ccc(F)cc1)c1cc(-c2cccn3c(-c4cccc(F)c4F)ncc23)cnc1C1CC1 [Example 82, 2-cyclopropyl-5-(3-(2,3-difluorophenyl)imidazo[1,5-a]pyridin-8-yl)-N-(4-fluorophenyl)nicotinamide]"
4,29.4,"Cc1ccc(-c2cccn3c(-c4cccc(F)c4F)ncc23)cc1C(=O)Nc1ccc(F)cc1 [Example 34, 5-(3-(2,3-difluorophenyl)imidazo[1,5-a]pyridin-8-yl)-N-(4-fluorophenyl)-2-methylbenzamide]"
5,24.3,"Fc1ccc2[nH]c(-c3cc(-c4cccn5c(-c6cccc(F)c6F)ncc45)ccc3C(F)(F)F)nc2c1 [Example 95, 2-(5-(3-(2,3-difluorophenyl)imidazo[1,5-a]pyridin-8-yl)-2-(trifluoromethyl)phenyl)-5-fluoro-1H-benzo[d]imidazole]"
6,17.7,"Cc1ccc(-c2cccn3c(-c4cccc(F)c4F)ncc23)c(F)c1C(=O)Nc1ccc(F)cc1 [Example 42, 3-(3-(2,3-difluorophenyl)imidazo[1,5-a]pyridin-8-yl)-2-fluoro-N-(4-fluorophenyl)-6-methylbenzamide]"
7,15,O=C(Nc1ccc(F)cc1)c1cc(-c2cccn3c(-c4cccc(F)c4F)ncc23)ccc1OC(F)(F)F [Example 55]
8,16.1,"O=C(Nc1ccc(F)cc1)c1cc(-c2cccn3c(-c4ncco4)ncc23)ccc1C(F)(F)F [Example 46, N-(4-fluorophenyl)-5-(3-(oxazol-2-yl)imidazo[1,5-a]pyridin-8-yl)-2-(trifluoromethyl)benzamide]"
9,16.9,"Cc1nc(-c2cccc(F)c2F)n2cccc(-c3ccc(C(F)(F)F)c(C(=O)Nc4ccc(F)cc4)c3)c12 [Example 44, 5-(3-(2,3-difluorophenyl)-1-methylimidazo[1,5-a]pyridin-8-yl)-N-(4-fluorophenyl)-2-(trifluoromethyl)benzamide]"
10,21.1,"Cc1ncc(-c2cccn3c(-c4cccc(F)c4F)ncc23)cc1C(=O)Nc1ccc(F)cn1 [Example 60, 5-(3-(2,3-difluorophenyl)imidazo[1,5-a]pyridin-8-yl)-N-(5-fluoropyridin-2-yl)-2-methylnicotinamide]"
11,19.8,"O=C(Nc1ccc(F)cc1)c1cc(-c2cccn3c(-c4cccc(F)c4F)ncc23)ccc1C(F)F [Example 41, 2-(difluoromethyl)-5-(3-(2,3-difluorophenyl)imidazo[1,5-a]pyridin-8-yl)-N-(4-fluorophenyl)benzamide]"
12,23.3,"O=C(Nc1ccc(F)cc1)c1cc(-c2cccn3c(-c4cccc(F)c4)ncc23)ccc1C(F)(F)F [Example 39, N-(4-fluorophenyl)-5-(3-(3-fluorophenyl)imidazo[1,5-a]pyridin-8-yl)-2-(trifluoromethyl)benzamide]"
13,15.2,"O=C(Nc1ccc(F)cc1)c1cc(-c2cccn3c(-c4cccc(F)c4F)ncc23)ccc1C1CC1 [Example 62, 2-cyclopropyl-5-(3-(2,3-difluorophenyl)imidazo[1,5-a]pyridin-8-yl)-N-(4-fluorophenyl)benzamide]"
14,26.8,"Cc1ncc(-c2cccn3c(-c4cccc(F)c4)ncc23)cc1C(=O)Nc1ccc(F)cc1 [Example 35, N-(4-fluorophenyl)-5-(3-(3-fluorophenyl)imidazo[1,5-a]pyridin-8-yl)-2-methylnicotinamide]"
15,16,"O=C(Nc1ccc(F)cc1)c1cc(-c2cccn3c(-c4cccc(F)c4F)ncc23)cnc1C(F)(F)F [Example 47, 5-(3-(2,3-difluorophenyl)imidazo[1,5-a]pyridin-8-yl)-N-(4-fluorophenyl)-2-(trifluoromethyl)nicotinamide]"

# Reference: patent US11040033B2 (Gilead Sciences, Inc., priority 2017, dated 2021)
